Source: ChEMBL document CHEMBL5352447, “Development of [1,2]oxazoloisoindoles tubulin polymerization inhibitors: Further chemical modifications and potential therapeutic effects against lymphomas” (Eur J Med Chem, 2022)

How the values were obtained:
CCRF-CEM = assay: Antiproliferative activity against human CCRF-CEM cells assessed as cell growth inhibition incubated for 72 hrs by MTT assay; format: functional
HL-60(TB) = assay: Antiproliferative activity against human HL-60(TB) cells assessed as cell growth inhibition incubated for 72 hrs by MTT assay; format: functional
MOLT-4 = assay: Antiproliferative activity against human MOLT-4 cells assessed as cell growth inhibition incubated for 72 hrs by MTT assay; format: functional
RPMI-8226 = assay: Antiproliferative activity against human RPMI-8226 cells assessed as cell growth inhibition incubated for 72 hrs by MTT assay; format: functional
SR = assay: Antiproliferative activity against human SR cells assessed as cell growth inhibition incubated for 72 hrs by MTT assay; format: functional
A549 = assay: Antiproliferative activity against human A549 cells assessed as cell growth inhibition incubated for 72 hrs by MTT assay; format: functional
EKVX = assay: Antiproliferative activity against human EKVX cells assessed as cell growth inhibition incubated for 72 hrs by MTT assay; format: functional
NCI-H226 = assay: Antiproliferative activity against human NCI-H226 cells assessed as cell growth inhibition incubated for 72 hrs by MTT assay; format: functional
NCI-H23 = assay: Antiproliferative activity against human NCI-H23 cells assessed as cell growth inhibition incubated for 72 hrs by MTT assay; format: functional
NCI-H322M = assay: Antiproliferative activity against human NCI-H322M cells assessed as cell growth inhibition incubated for 72 hrs by MTT assay; format: functional
NCI-H460 = assay: Antiproliferative activity against human NCI-H460 cells assessed as cell growth inhibition incubated for 72 hrs by MTT assay; format: functional
COLO 205 = assay: Antiproliferative activity against human COLO 205 cells assessed as cell growth inhibition incubated for 72 hrs by MTT assay; format: functional
HCC 2998 = assay: Antiproliferative activity against human HCC 2998 cells assessed as cell growth inhibition incubated for 72 hrs by MTT assay; format: functional
HCT-116 = assay: Antiproliferative activity against human HCT-116 cells assessed as cell growth inhibition incubated for 72 hrs by MTT assay; format: functional
HCT-15 = assay: Antiproliferative activity against human HCT-15 cells assessed as cell growth inhibition incubated for 72 hrs by MTT assay; format: functional
HT-29 = assay: Antiproliferative activity against human HT-29 cells assessed as cell growth inhibition incubated for 72 hrs by MTT assay; format: functional
SF-268 = assay: Antiproliferative activity against human SF-268 cells assessed as cell growth inhibition incubated for 72 hrs by MTT assay; format: functional
SNB-19 = assay: Antiproliferative activity against human SNB-19 cells assessed as cell growth inhibition incubated for 72 hrs by MTT assay; format: functional
SNB-75 = assay: Antiproliferative activity against human SNB-75 cells assessed as cell growth inhibition incubated for 72 hrs by MTT assay; format: functional
LOX IMVI = assay: Antiproliferative activity against human LOX IMVI cells assessed as cell growth inhibition incubated for 72 hrs by MTT assay; format: functional
Malme-3M = assay: Antiproliferative activity against human Malme-3M cells assessed as cell growth inhibition incubated for 72 hrs by MTT assay; format: functional
M14 = assay: Antiproliferative activity against human M14 cells assessed as cell growth inhibition incubated for 72 hrs by MTT assay; format: functional
MDA-MB-435 = assay: Antiproliferative activity against human MDA-MB-435 cells assessed as cell growth inhibition incubated for 72 hrs by MTT assay; format: functional
SK-MEL-2 = assay: Antiproliferative activity against human SK-MEL-2 cells assessed as cell growth inhibition incubated for 72 hrs by MTT assay; format: functional
SK-MEL-28 = assay: Antiproliferative activity against human SK-MEL-28 cells assessed as cell growth inhibition incubated for 72 hrs by MTT assay; format: functional
SK-MEL-5 = assay: Antiproliferative activity against human SK-MEL-5 cells assessed as cell growth inhibition incubated for 72 hrs by MTT assay; format: functional
UACC-257 = assay: Antiproliferative activity against human UACC-257 cells assessed as cell growth inhibition incubated for 72 hrs by MTT assay; format: functional
UACC-62 = assay: Antiproliferative activity against human UACC-62 cells assessed as cell growth inhibition incubated for 72 hrs by MTT assay; format: functional
IGROV-1 = assay: Antiproliferative activity against human IGROV-1 cells assessed as cell growth inhibition incubated for 72 hrs by MTT assay; format: functional
OVCAR-4 = assay: Antiproliferative activity against human OVCAR-4 cells assessed as cell growth inhibition incubated for 72 hrs by MTT assay; format: functional
OVCAR-8 = assay: Antiproliferative activity against human OVCAR-8 cells assessed as cell growth inhibition incubated for 72 hrs by MTT assay; format: functional
SK-OV-3 = assay: Antiproliferative activity against human SK-OV-3 cells assessed as cell growth inhibition incubated for 72 hrs by MTT assay; format: functional
ACHN = assay: Antiproliferative activity against human ACHN cells assessed as cell growth inhibition incubated for 72 hrs by MTT assay; format: functional
RXF 393 = assay: Antiproliferative activity against human RXF 393 cells assessed as cell growth inhibition incubated for 72 hrs by MTT assay; format: functional
SN12C = assay: Antiproliferative activity against human SN12C cells assessed as cell growth inhibition incubated for 72 hrs by MTT assay; format: functional
TK-10 = assay: Antiproliferative activity against human TK-10 cells assessed as cell growth inhibition incubated for 72 hrs by MTT assay; format: functional
UO-31 = assay: Antiproliferative activity against human UO-31 cells assessed as cell growth inhibition incubated for 72 hrs by MTT assay; format: functional
MCF7 = assay: Antiproliferative activity against human MCF7 cells assessed as cell growth inhibition incubated for 72 hrs by MTT assay; format: functional
Hs-578T = assay: Antiproliferative activity against human Hs-578T cells assessed as cell growth inhibition incubated for 72 hrs by MTT assay; format: functional
BT-549 = assay: Antiproliferative activity against human BT-549 cells assessed as cell growth inhibition incubated for 72 hrs by MTT assay; format: functional
MDA-MB-468 = assay: Antiproliferative activity against human MDA-MB-468 cells assessed as cell growth inhibition incubated for 72 hrs by MTT assay; format: functional
VL51 [1] = assay: Antiproliferative activity against human VL51 cells assessed as proliferating cells at 1 uM incubated for 72 hrs by MTT assay relative to control; format: functional
[2] = Antiproliferative activity against human MINO cells assessed as proliferating cells at 1 uM incubated for 72 hrs by MTT assay relative to control; format: functional
[3] = Antiproliferative activity against human HBL1 cells assessed as proliferating cells at 1 uM incubated for 72 hrs by MTT assay relative to control; format: functional
VL51 [4] = assay: Antiproliferative activity against human VL51 cells assessed as inhibition of cell proliferation incubated for 72 hrs by MTT assay; format: functional, cell-based; conditions: VL51, 72 h
[5] = Antiproliferative activity against human MINO cells assessed as inhibition of cell proliferation incubated for 72 hrs by MTT assay; format: functional, cell-based
SU-DHL10 = assay: Antiproliferative activity against human SU-DHL-10 cells assessed as inhibition of cell proliferation incubated for 72 hrs by MTT assay; format: functional, cell-based; conditions: SU-DHL10, 72 h

## COc1ccc(Cn2cc3c(c2-c2cc(OC)c(OC)c(OC)c2)CCc2c(CO)noc2-3)cc1
CCRF-CEM
  GI50: 320 nM
HL-60(TB)
  GI50: 210 nM
MOLT-4
  GI50: 440 nM
RPMI-8226
  GI50: 420 nM
SR
  GI50: 210 nM
A549
  GI50: 420 nM
EKVX
  GI50: 510 nM
NCI-H226
  GI50: 15000 nM
NCI-H23
  GI50: 520 nM
NCI-H322M
  GI50: 640 nM
NCI-H460
  GI50: 340 nM
COLO 205
  GI50: 300 nM
HCC 2998
  GI50: 1340 nM
HCT-116
  GI50: 270 nM
HCT-15
  GI50: 260 nM
HT-29
  GI50: 320 nM
SF-268
  GI50: 1060 nM
SNB-19
  GI50: 390 nM
SNB-75
  GI50: 180 nM
LOX IMVI
  GI50: 570 nM
Malme-3M
  GI50: 13500 nM
M14
  GI50: 150 nM
MDA-MB-435
  GI50: 30 nM
SK-MEL-2
  GI50: 460 nM
SK-MEL-28
  GI50: 3600 nM
SK-MEL-5
  GI50: 210 nM
UACC-257
  GI50: 14700 nM
UACC-62
  GI50: 250 nM
IGROV-1
  GI50: 490 nM
OVCAR-4
  GI50: 5440 nM
OVCAR-8
  GI50: 380 nM
SK-OV-3
  GI50: 370 nM
ACHN
  GI50: 620 nM
RXF 393
  GI50: 160 nM
SN12C
  GI50: 720 nM
TK-10
  GI50: 17700 nM
UO-31
  GI50: 580 nM
MCF7
  GI50: 90 nM
Hs-578T
  GI50: 410 nM
BT-549
  GI50: 490 nM
MDA-MB-468
  GI50: 330 nM
VL51 [1]
  Activity: 51.3%
[2]
  Activity: 82.1%
[3]
  Activity: 80.3%
VL51 [4]
  IC50: 1600 nM
[5]
  IC50: 1400 nM
SU-DHL10
  IC50: 1800 nM
